Data: ChEMBL document CHEMBL1155680, “A new bioactive triene aldehyde from the marine sponge Leucetta microraphis” (J Nat Prod, 2000)
The source made the active and inactive calls. No cut-off for these calls is given here.

System: HeLa
Experiment: Growth inhibition of human HeLa S3 cells at 10 ug/ml after 72 hrs by crystal violet assay
Assay type: functional, cell-based

Q: With CCCCCCCCCC/C=C\C/C=C\CC/C=C(\C)C=O as the compound, how does the Activity read?
A: Its Activity is “Active”.
